Reference: patent US6020374A, “Biologically active synthetic dye compounds” (priority 1998, dated 2000)

Tests used:
IR = target: T1, IR (Rattus norvegicus, UniProt P15127); assay: Tyrosine phosphorylation of IR in FaO cells; assay type: cell-based; details: 3 hour preincubation with vanadate, 5 min. incubations with EB and insulin
T1 construct: determined in the rat hepatoma cell line FaO; endogenous in cells; host or cells: FaO (rat hepatoma)
Experimental: (§1) FIG. 9 is the tyrosine phosphorylation of the IR cascade in Fao cells: A--Immunoblot analysis: Fao cells were deprived of serum for 20 hours, then incubated with EB, ATA, at 200 μg/ml or insulin at 600 ng/ml for 5 mins. Cell extracts were subjected to immunoprecipitation with antibodies to: IR β-subunit (αIR), IRS-1 (αIRS-1) and to IRS-2 (αIRS-2). The immunoprecipitates and total cell extracts were analyzed by SDS-PAGE. Proteins were transferred to nitrocellulose papers, and phosphotyrosine containing proteins were probed with anti-phosphotyrosine antibodies (αP-Tyr), antibody to the 85-kDa subunit of PI3-kinase (αp85) and antibodies to active MAPK (α active MAPK). The immunoblots were visualized by ECL (Amersham).
B--Kinetics of IR phosphorylation: Cells were treated either with 200 μg/ml EB for the indicated times (top panel) or with the indicated concentrations of EB for 5 mins. (middle panel). A 3 hour preincubation with vanadate preceded the 5 min. incubations with EB and insulin (bottom panel).
(§2) MCF-7 cells were grown in 35 or 100 mm dishes in DMEM with 5% bovine fetal serum. Rat hepato FaO cells were grown in RPMI 1640 medium supplemented with 10% fetal calf serum. Subconfluent monolayers of MCF-7 cells or FaO cells, were deprived of serum for 20 hours prior to each experiment. The medium was removed, and cells were incubated at 37° C. under the conditions as indicated for each experiment. The reaction was terminated by removing the medium and freezing the monolayers with liquid nitrogen. In some experiments, cells were preincubated with 50 μM sodium orthovanadate for 3 hours.
(§3) Cells were solubilized in Buffer A or C. Extracts were immunoprecipitated at 4° C. with antibodies to IRS-1, IRS-2, IGF-1 or IR receptor or Grb2, adsorbed on protein A-Sepharose beads. The immunocomplexes were pelleted by centrifugation at 12,000×g and washed twice with Buffer A, and twice with Buffer A containing 0.1% Triton x-100. The pellets were then suspended in Laemmli sample buffer and resolved on 7.5% SDS-PAGE.
(§4) Nitrocellulose blots of proteins were incubated with the antibodies, and proteins were detected by enhanced chemiluminescence using horseradish peroxidase-labeled protein A, horseradish peroxidase-labeled anti rabbit IgG or horseradish peroxidase-labeled anti-mouse IgG.
The ability of EB and ATA to phosphorylate the IR was determined in the rat hepatoma cell line FaO. […] Phosphorylation is maximal after a 1 min. exposure to 70 μg/ml of EB (FIG. 9B, top and middle panels).

[1] = test system: 185 kDa protein(s) (p185); assay: Tyrosine phosphorylation of p185 in MCF-7 cells (anti-phosphotyrosine immunoblot); assay type: cell-based
Experimental: FIG. 1 is the effect of ATA and EB on tyrosine phosphorylation: MCF-7 cells, grown in 35 mm dishes were solubilized in Buffer A (a) or Buffer B (b-c). The solubilized cells were subjected to 7.5% SDS-PAGE and immunoblotted with an anti-phosphotyrosine antibody. (a) Cells treated for 5 mins. with ATA, EB, each at 300 μg/ml, IGF-1 at 20 ng/ml, or without additives (CON); (b) Cells treated with 300 μg/ml ATA for the indicated times; (c) Cells treated with 30 μg/ml EB for the indicated times; (d) Cells treated for 5 mins. with the indicated concentrations of ATA; (e) Cells treated for 5 mins. with the indicated concentrations of EB. Molecular mass markers (in kDa) are indicated on the right.
FIG. 2 is the effect of ATA and vanadate on the IGF-1 stimulated tyrosine phosphorylation of p185: A--Cells treated for 5 mins. with the indicated concentrations of IGF-1 in the presence or absence of 300 μg/ml ATA; B--Cells pre-incubated for 3 hours with or without 50 μM vanadate were incubated for 5 mins. with ATA, EB each at 300 μg/ml or with 10 ng/ml IGF-1 in the presence or absence of vanadate. Cytosols extracted in Buffer B were analyzed by immunoblotting with anti-phosphotyrosine antibody as in FIG. 1.
FIG. 8 is the effect of fractionated ATA on p185 phosphorylation: A--Crude ATA was separated on a Bio-Rad P-4 column and the combined void volume was then gel filtrated on a column of Bio-Rad P-10. The column was calibrated with the following molecular weight markers: DB-Dextran blue; CC-cytochrome C: Ins-insulin; B12-Vitamin B12. B--MCF-7 cells were incubated for 5 mins. with the indicated fractions of ATA (eluted from the P-10 column shown in A), crude ATA, each at 200 μg/ml or IGF-1 at 20 ng/ml. Cytosols, solubilized in Buffer B were subjected to 7.5% SDS-PAGE and immunoblotted with phosphotyrosine antibody.
as §2
Cells were solubilized at 4° C. with 0.2 ml/35 mm dish or 2 ml/100 mm dish of the indicated buffer. The solubilized cells were scraped and sedimented by centrifugation at 12,000×g for 30 mins. at 4° C. Aliquots of the supernatants were normalized for protein, mixed with concentrated (5×) Laemmli sample buffer, boiled for 10 mins. and resolved on 7.5 or 12% SDS-PAGE under reducing conditions.
as §4

MCF-7 cells = assay: Cell death estimation, cycloheximide-exposed MCF-7 cells (trypan blue); assay type: cell-based; details: 30 μg CX, 48 hours, IGF-1 20 μg/ml
Experimental: Subconfluent cultures of MCF-7 cells in 35 mm dishes, were deprived of serum for 20 hours and then exposed to 30 μg/ml cycloheximide in the presence or absence of increasing concentrations of fractionated ATA, crude ATA or EB. After 48 hours, the cells were detached with trypsin. The medium and the detached cells were pooled and centrifuged at 1000×g for 10 mins. Cell viability was estimated by adding an equivalent volume of trypan blue solution to an aliquot of suspended cells. Stained and unstained cells were counted on a hemocytometer (10^3 cells were counted for each determination).
Subconfluent, 20 hours starved MCF-7 cells were exposed to 30 μg/ml
of cycloheximide in the presence of increasing
concentrations of fractionated ATA (0, 6, 12, 25, 50 μg/ml). After
48 hours, percent of dead cells was
determined as described under "Experimental procedures". In the
presence of cycloheximide only, 60-70% of
the cells were dead after 48 hours.
Cultures of […] cells were exposed to 30 μg CX for 48 hours in the presence of EB, ATA, IGF-1, or nothing.

IRS-1 [2] = assay: IRS-1 tyrosine phosphorylation and association with p85/Grb2 in MCF-7 cells; assay type: cell-based; details: 5 mins., ATA or EB 300 μg/ml, IGF-1 20 ng/ml
Experimental: FIG. 3 is the effect of ATA and EB on tyrosine phosphorylation or IRS-1: MCF-7 cells grown in 100 mm dishes, were treated with ATA or EB, each at 300 μg/ml, or 20 ng/ml IGF-1 for 5 mins. Total cell extracts, solubilized in Buffer A, were subjected to immunoprecipitation with antibodies to IRS-1 (a) or Grb2 (b). The immunocomplexes, precipitated with protein G-Sepharose beads, were subjected to 7.5% SDS-PAGE followed by immunoblotting with a phosphotyrosine antibody, an antibody to the 85-kDa subunit of PI3-kinase or antibody to IRS-1.
as §3, §4
(§5) MCF-7 cells were stimulated with ATA, EB or IGF-1, solubilized and immunoprecipitated with anti IRS-1 or IRS-2 antibodies, separated by SDS-PAGE and immunoblotted with anti-phosphotyrosine antibody. […] The association of IRS-1 with Grb-2 was evaluated in lysates from treated cells which were immunoblotted with antibodies to either phosphotyrosine or IRS-1.

[3] = test system: MAPK-1 (44 kDa) and MAPK-2 (42 kDa); assay: Activation of MAPKs in MCF-7 cells (anti-active MAPK immunoblot); assay type: cell-based; details: 5 mins., ATA, EB each at 300 μg/ml, IGF-1 20 or 40 ng/ml
Experimental: FIG. 7 is the effect of ATA and EB on activation of MAPKs: MCF-7 cells were treated for 5 mins. with ATA, EB, each at 300 μg/ml, 20 ng/ml or 40 ng/ml IGF-1. Cell lysates, solubilized in Buffer C, were subjected to 12% SDS-PAGE and immunoblotted with an anti-active MAPK antibody. The membrane, after ECL detection, was stripped of bound antibody and blotted with an anti-MAPK antibody.
as §4
The activated forms of MAPKs were detected by anti-active MAPK immunoblotting in the MCF-7 cell's lysates. […] Blotting with anti MAPKs antibodies confirms that similar amounts of MAPKs were present in treated and non-treated cells.

IRS-2 [4] = assay: IRS-2 association with p85 of PI3-kinase in MCF-7 cells; assay type: cell-based; details: 5 mins., ATA or EB 300 μg/ml, IGF-1 20 ng/ml
Experimental: FIG. 4 is the effect of ATA and EB on tyrosine phosphorylation of IRS-2: MCF-7 cells were treated as in FIG. 3. Total cell extracts, solubilized in Buffer C, were immunoprecipitated with an antibody to IRS-2. The immunocomplexes, precipitated with protein A-Sepharose beads were subjected to 7.5% SDS-PAGE, followed by immunoblotting with a phosphotyrosine antibody and an antibody to the 85-kDA subunit of PI3-kinase.
as §3, §4, §5

3T3 L1 adipocytes [5] = assay: Glycogen synthesis in 3T3 L1 adipocytes; assay type: cell-based; details: 20 mins., EB, ATA 200 μg/ml, insulin 600 ng/ml
Experimental: (§6) FIG. 11 is the metabolic effects in 3T3 L1 adipocytes: Fully differentiated 3T3 L1 adipocytes were incubated with EB, ATA or fuchsin (FUCH) each at 200 μg/ml, or with 600 ng/ml of insulin for 20 mins. (A, B, C) or 5 mins. (D). CON indicates no additive.
B--Glycogen synthesis. Cells were incubated with (^14 C)-glucose for 10 mins. Radioactivity was determined in the precipitated glycogen fraction.

MAPKs 1 and 2 = assay: Activation of MAPKs in FaO cells; assay type: cell-based, rat; details: 5 mins., EB 200 μg/ml, insulin 600 ng/ml
Experimental: as §1, §4
In the rat hepatoma cell line FaO, EB and insulin, enhanced IRS-1 and IRS-2 tyrosine phosphorylation and their association with the 85-kDa regulatory subunit of the PI-kinase (FIG. 9A). PI3-kinase activity increases following its association with IRS-1 and IRS-2 (FIG. 9C). MAPKs 1 and 2 were activated by EB and insulin (FIG. 9A).

[6] = test system: IR, IRS-1 and the 85-kDa regulatory subunit of PI3-kinase; assay: In vivo tyrosine phosphorylation of the IR cascade in rat liver; details: Sprague-Dawley male rats, portal vein injection, EB 20 mg/rat, insulin 1 u/rat
Experimental: A--Immunoblot analysis. Rat liver extracts were subjected to immunoprecipitation and blotting with the indicated antibodies, as described in the legend to FIG. 9A.
(§7) EB (20 mg/rat) or insulin (1 u/rat) was injected into about 120 g weighing Sprague-Dawley male rats, via the portal vein. Control rats were injected with saline (SAL) alone. The rats were killed and the livers excised and frozen in liquid nitrogen at the indicated times.

IRS-2 [7] = assay: IRS-2 tyrosine phosphorylation and association with p85 in FaO cells; assay type: cell-based, rat; details: 5 mins., EB 200 μg/ml, insulin 600 ng/ml
Experimental: as §1
as §2, with “The reaction was terminated by removing the medium and freezing the monolayers with liquid nitrogen. In some experiments, cells were preincubated with 50 μM sodium orthovanadate for 3 hours.” left out
(§8) Nitrocellulose blots of proteins were incubated with the antibodies, and proteins were detected by enhanced chemiluminescence using horseradish peroxidase-labeled protein A, horseradish peroxidase-labeled anti rabbit IgG or horseradish peroxidase-labeled anti-mouse IgG. […]

3T3 L1 adipocytes [8] = assay: 2-deoxyglucose uptake in 3T3 L1 adipocytes; assay type: cell-based; details: 20 mins., EB, ATA 200 μg/ml, insulin 600 ng/ml
Experimental: as §6
A--2-deoxyglucose uptake. Hexose uptake was measured for 10 mins. using 50 μM 2-deoxy-(^3 H) glucose (1 μCi/ml). Non-specific uptake was determined in the presence of cytochalasin B (50 μM).

IRS-1 [9] = assay: IRS-1 tyrosine phosphorylation and association with p85 in FaO cells; assay type: cell-based, rat; details: 5 mins., EB 200 μg/ml, insulin 600 ng/ml
Experimental: as §1
as §2, with “The reaction was terminated by removing the medium and freezing the monolayers with liquid nitrogen. In some experiments, cells were preincubated with 50 μM sodium orthovanadate for 3 hours.” left out
as §8

3T3 L1 adipocytes [10] = assay: Lipogenesis in 3T3 L1 adipocytes; assay type: cell-based; details: 20 mins., EB, ATA 200 μg/ml, insulin 600 ng/ml
Experimental: as §6
C--Lipogenesis. Cells were incubated with 5 mM(U-^14 C) glucose (1 μCi/ml) for 60 mins. Radioactivity was determined in the cellular lipid fraction.

PI3-kinase = assay: In vivo PI3-kinase activity in rat liver; details: Sprague-Dawley male rats, portal vein, 5 mins. after injection, EB 20 mg/rat, insulin 1 u/rat
Experimental: B--Induction of PI3-kinase. PI3-kinase activity, 5 mins. after injection was assayed as described in FIG. 9C. The results are representative of 2 to 4 independent experiments.
as §7

T1 sequence (P15127 764-1383 limits assumed): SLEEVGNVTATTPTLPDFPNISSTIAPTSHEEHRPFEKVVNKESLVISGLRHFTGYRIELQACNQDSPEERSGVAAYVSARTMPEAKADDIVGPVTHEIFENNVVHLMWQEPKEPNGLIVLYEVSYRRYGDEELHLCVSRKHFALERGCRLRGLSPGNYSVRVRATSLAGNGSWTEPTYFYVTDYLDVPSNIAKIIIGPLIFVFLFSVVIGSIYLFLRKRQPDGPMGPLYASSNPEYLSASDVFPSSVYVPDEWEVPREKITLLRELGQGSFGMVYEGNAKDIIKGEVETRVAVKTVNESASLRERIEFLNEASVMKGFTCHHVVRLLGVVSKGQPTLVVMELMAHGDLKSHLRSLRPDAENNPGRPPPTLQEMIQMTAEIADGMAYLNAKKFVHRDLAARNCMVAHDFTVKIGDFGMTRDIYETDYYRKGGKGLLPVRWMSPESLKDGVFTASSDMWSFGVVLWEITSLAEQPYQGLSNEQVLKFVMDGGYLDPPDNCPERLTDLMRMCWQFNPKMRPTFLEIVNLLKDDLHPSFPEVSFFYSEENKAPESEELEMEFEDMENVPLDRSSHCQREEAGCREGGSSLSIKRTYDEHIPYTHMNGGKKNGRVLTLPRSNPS
T1 sequence (P15127 27-759 limits assumed): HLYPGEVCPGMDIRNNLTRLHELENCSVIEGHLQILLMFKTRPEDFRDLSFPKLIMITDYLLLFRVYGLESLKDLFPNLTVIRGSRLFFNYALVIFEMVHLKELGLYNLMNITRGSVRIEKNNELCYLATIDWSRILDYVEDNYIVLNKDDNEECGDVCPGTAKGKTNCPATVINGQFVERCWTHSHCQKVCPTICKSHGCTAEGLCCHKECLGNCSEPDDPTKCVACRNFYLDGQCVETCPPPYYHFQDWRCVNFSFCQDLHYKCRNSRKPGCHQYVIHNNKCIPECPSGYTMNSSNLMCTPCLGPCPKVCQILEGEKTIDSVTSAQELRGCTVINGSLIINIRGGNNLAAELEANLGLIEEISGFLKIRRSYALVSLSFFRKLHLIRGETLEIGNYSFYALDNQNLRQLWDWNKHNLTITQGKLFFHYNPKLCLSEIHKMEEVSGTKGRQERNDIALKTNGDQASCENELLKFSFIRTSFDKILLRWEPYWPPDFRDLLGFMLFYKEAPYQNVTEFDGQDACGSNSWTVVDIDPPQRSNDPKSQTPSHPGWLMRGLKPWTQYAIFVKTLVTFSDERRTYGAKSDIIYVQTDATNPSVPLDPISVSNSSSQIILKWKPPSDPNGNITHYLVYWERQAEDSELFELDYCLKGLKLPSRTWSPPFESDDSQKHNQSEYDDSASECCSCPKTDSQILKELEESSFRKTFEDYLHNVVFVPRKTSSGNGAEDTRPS

Molecule: [Na+].[Na+].[Na+].[O]=[V]([O-])([O-])[O-] [Vanadate, sodium orthovanadate, reference compound]
- Effect on IR phosphorylation induced by insulin (IR): enhances
- Effect on phosphorylation of p185 induced by IGF-1, ATA and EB ([1]; MCF-7 cells pre-incubated 3 hours with 50 μM vanadate): markedly enhanced

Molecule: IGF-1: Recombinant human IGF-1 from Boehringer Mannheim
- Percent dead cells (MCF-7 cells): 15 ± 4%
- Association of IRS-1 with Grb-2 (IRS-1 [2]): IRS-1 co-precipitated with Grb2
- Association of p85 subunit of PI3-k with IRS-1 (IRS-1 [2]): p85 precipitates with IRS-1
- Phosphorylation of IRS-1 (IRS-1 [2]): stimulated the phosphorylation of IRS-1
- Tyrosine phosphorylation of a 185 kDa protein(s) ([1]; MCF-7 cells, 5 mins., ATA, EB each at 300 μg/ml, IGF-1 at 20 ng/ml): enhanced tyrosine phosphorylation of a 185 kDa protein(s)
- pp185 (arbitrary units) ([1]; MCF-7 cells, 5 mins., IGF-1 at 20 ng/ml, scanned autoradiogram from FIG. 8B, Control 100): 1,751 arbitrary units
- Phosphorylated (active) isoforms MAPK-1 and MAPK-2 [3]: clearly detected
- Association of p85 subunit of PI3-k with IRS-2 (IRS-2 [4]): p85 precipitates

Molecule: insulin: The hormone insulin
- Glycogen synthesis (3T3 L1 adipocytes [5]): increase
- Activation of MAPKs 1 and 2 (MAPKs 1 and 2): activated
- Tyrosine phosphorylation of IR, IRS-1 and 85-kDa subunit of PI3-kinase in liver [6]: phosphorylated tyrosines of IR, IRS-1 and the 85-kDa of the regulatory subunit of PI3-kinase
- IRS-2 tyrosine phosphorylation and association with the 85-kDa regulatory subunit of PI-kinase (IRS-2 [7]): enhanced
- Glucose uptake (3T3 L1 adipocytes [8]): increase glucose uptake
- IRS-1 tyrosine phosphorylation and association with the 85-kDa regulatory subunit of PI-kinase (IRS-1 [9]): enhanced
- Lipogenesis (3T3 L1 adipocytes [10]): increase
- PI3-kinase activity in liver (PI3-kinase): increased
